Measured values: ChEMBL document CHEMBL1201862, “PubChem BioAssay data set” (2004)
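Protocol summary: plate cells (96-well), add compound at 5 concentrations, incubate 48 h, interpolate endpoints linearly. Abbreviation: GI50, concentration required for 50% inhibition of growth.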 The source made the active and inactive calls. No stated cut-off is given here; in the data, active = GI50 up to about 1.1 µM and inactive = higher.

Key:
Test in all cases: inhibition of tumour cell growth, NCI panel, 48 h
[1] = system: NCI/ADR-RES
[2] = system: Malme-3M
[3] = system: RXF 393
[4] = system: SK-MEL-28
[5] = system: SNB-75
[6] = system: UACC-257
[7] = system: SF-295
[8] = system: CCRF-CEM
[9] = system: U-251
[10] = system: IGROV-1
[11] = system: SK-MEL-5
[12] = system: Hs-578T
[13] = system: A498
[14] = system: OVCAR-4
[15] = system: MDA-MB-435
[16] = system: HCT-116
[17] = system: ACHN
[18] = system: UACC-62
[19] = system: T47D
[20] = system: NCI-H226

| Structure (SMILES) | GI50 [1] | GI50 [2] | GI50 [3] | GI50 [4] | GI50 [5] | GI50 [6] | GI50 [7] | GI50 [8] | GI50 [9] | GI50 [10] | GI50 [11] | GI50 [12] | GI50 [13] | GI50 [14] | GI50 [15] | GI50 [16] | GI50 [17] | GI50 [18] | GI50 [19] | GI50 [20] |
| --- | --- | --- | --- | --- | --- | --- | --- | --- | --- | --- | --- | --- | --- | --- | --- | --- | --- | --- | --- | --- |
| Cc1ccc(-c2cn3c(nc4ccccc43)c(-c3ccccc3)n2)cc1 | 47.9 µM (inactive) | > 83 µM (inactive) | 25.1 µM (inactive) | > 100 µM (inactive) | 8.45 µM (inactive) | > 100 µM (inactive) | 19.8 µM (inactive) | > 100 µM (inactive) | 18.8 µM (inactive) | 37.9 µM (inactive) | > 100 µM (inactive) | 15.3 µM (inactive) | 30.9 µM (inactive) | > 80.7 µM (inactive) | > 100 µM (inactive) | 75 µM (inactive) | 34 µM (inactive) | 22.4 µM (inactive) | 32.1 µM (inactive) | 58.3 µM (inactive) |
| CC1=C/C(=C(/c2ccc(O)c(C)c2)c2ccccc2C(=O)O)C=CC1=O | 31 µM (inactive) | 24.9 µM (inactive) | 17.4 µM (inactive) | 20.4 µM (inactive) | 18.5 µM (inactive) | 18.7 µM (inactive) | 21.8 µM (inactive) | 21.8 µM (inactive) | 18.2 µM (inactive) | 18.1 µM (inactive) | 20.4 µM (inactive) | 25.4 µM (inactive) | 18.7 µM (inactive) | 18.1 µM (inactive) | 17.6 µM (inactive) | 18.2 µM (inactive) | 18.3 µM (inactive) | 17.2 µM (inactive) | 26.8 µM (inactive) | 23.1 µM (inactive) |
| O=C1C(c2c(O)[nH]c3ccc(Br)cc23)=Nc2ccc(Br)cc21 | 34 µM (inactive) | 46 µM (inactive) | 16.6 µM (inactive) | > 100 µM (inactive) | 19.7 µM (inactive) | > 100 µM (inactive) | > 100 µM (inactive) | 63.5 µM (inactive) | 18.7 µM (inactive) | 1.71 µM (inactive) | > 100 µM (inactive) | 51.4 µM (inactive) | > 100 µM (inactive) | 53.7 µM (inactive) | 40.7 µM (inactive) | 18 µM (inactive) | > 100 µM (inactive) | > 100 µM (inactive) | > 100 µM (inactive) | > 100 µM (inactive) |
| Cn1c(CC(O)c2nc3ccccc3n2C)nc2ccccc21 (centres undefined) | 29.9 µM (inactive) | > 21.1 µM (inactive) | > 24.7 µM (inactive) | > 32.9 µM (inactive) | > 100 µM (inactive) | > 19.1 µM (inactive) | > 100 µM (inactive) | 2.65 µM (inactive) | > 28 µM (inactive) | > 17.4 µM (inactive) | > 32.8 µM (inactive) | > 14.5 µM (inactive) | > 32.9 µM (inactive) | > 23.3 µM (inactive) | > 18.5 µM (inactive) | > 23.7 µM (inactive) | > 23.6 µM (inactive) | > 34.8 µM (inactive) | > 8.57 µM (inactive) | > 48.3 µM (inactive) |
| Nc1nc(Cl)nc(NCc2ccccc2)n1 | > 100 µM (inactive) | > 100 µM (inactive) | > 100 µM (inactive) | > 100 µM (inactive) | > 100 µM (inactive) | > 100 µM (inactive) | > 100 µM (inactive) | > 100 µM (inactive) | > 100 µM (inactive) | > 100 µM (inactive) | > 100 µM (inactive) | > 100 µM (inactive) | > 100 µM (inactive) | > 100 µM (inactive) | > 100 µM (inactive) | > 100 µM (inactive) | > 100 µM (inactive) | > 100 µM (inactive) | > 100 µM (inactive) | > 100 µM (inactive) |
| O=C1C=CC(=O)c2c1ccc1c3ccccc3n(Cc3cccc([N+](=O)[O-])c3)c21 | 37.8 µM (inactive) | 19.5 µM (inactive) | 22.5 µM (inactive) | > 43.6 µM (inactive) | > 78.2 µM (inactive) | 23 µM (inactive) | > 100 µM (inactive) | 8.36 µM (inactive) | > 89.5 µM (inactive) | 22.9 µM (inactive) | 53.3 µM (inactive) | > 71.9 µM (inactive) | 58.3 µM (inactive) | 23.8 µM (inactive) | 26.2 µM (inactive) | 24.5 µM (inactive) | 18.2 µM (inactive) | > 46 µM (inactive) | 26.4 µM (inactive) | 99.3 µM (inactive) |
| CN1Cc2c(ccc3c2OCO3)[C@@H]2[C@H](O)Cc3cc4c(cc3[C@@H]21)OCO4 | 2.35 µM (inactive) | 4.63 µM (inactive) | 2.72 µM (inactive) | 4.98 µM (inactive) | 2.62 µM (inactive) | 5.26 µM (inactive) | 2.14 µM (inactive) | 2.82 µM (inactive) | 3.19 µM (inactive) | 3.87 µM (inactive) | 1.41 µM (inactive) | 3.59 µM (inactive) | 2.17 µM (inactive) | > 86.7 µM (inactive) | 0.52 µM (active) | 3.4 µM (inactive) | 11 µM (inactive) | 3.05 µM (inactive) | 9.23 µM (inactive) | 3.01 µM (inactive) |
| C[n+]1c2ccccc2c2/c(=C\C#N)c3ccccc3n21 | 32 µM (inactive) | 2.53 µM (inactive) | 4.85 µM (inactive) | 9.25 µM (inactive) | 3.23 µM (inactive) | 3.06 µM (inactive) | 5.82 µM (inactive) | 3.66 µM (inactive) | 2.73 µM (inactive) | 3 µM (inactive) | 6.53 µM (inactive) | 4.21 µM (inactive) | 20 µM (inactive) | 2.79 µM (inactive) | 5.43 µM (inactive) | 3.03 µM (inactive) | 4.91 µM (inactive) | 10.7 µM (inactive) | 5.73 µM (inactive) | 3.81 µM (inactive) |
| CN(C)CC(O)CNC(=O)Nc1ccccc1 (centres undefined) | > 100 µM (inactive) | > 100 µM (inactive) | > 100 µM (inactive) | > 100 µM (inactive) | > 100 µM (inactive) | > 100 µM (inactive) | > 100 µM (inactive) | > 100 µM (inactive) | > 100 µM (inactive) | > 100 µM (inactive) | > 100 µM (inactive) | > 100 µM (inactive) | > 100 µM (inactive) | > 100 µM (inactive) | > 100 µM (inactive) | > 100 µM (inactive) | > 100 µM (inactive) | > 100 µM (inactive) | > 100 µM (inactive) | > 100 µM (inactive) |
| CC(=O)c1cc2c(Br)cccc2oc1=O | > 100 µM (inactive) | > 100 µM (inactive) | > 100 µM (inactive) | > 100 µM (inactive) | > 100 µM (inactive) | > 100 µM (inactive) | > 100 µM (inactive) | > 100 µM (inactive) | 63.4 µM (inactive) | > 100 µM (inactive) | > 100 µM (inactive) | > 100 µM (inactive) | > 100 µM (inactive) | > 100 µM (inactive) | 54.5 µM (inactive) | 66.7 µM (inactive) | > 100 µM (inactive) | > 100 µM (inactive) | > 100 µM (inactive) | > 100 µM (inactive) |
| COC(=O)[C@H](CNC(=O)/C=C/c1ccc(OC(C)=O)c(OC(C)=O)c1)NC(=O)/C=C/c1ccc(OC(C)=O)c(OC(C)=O)c1 | > 100 µM (inactive) | 16.4 µM (inactive) | > 100 µM (inactive) | > 100 µM (inactive) | > 100 µM (inactive) | > 100 µM (inactive) |  | 39.3 µM (inactive) | > 100 µM (inactive) | > 100 µM (inactive) | 62.7 µM (inactive) | > 100 µM (inactive) | > 100 µM (inactive) | > 100 µM (inactive) | > 100 µM (inactive) | > 100 µM (inactive) | > 100 µM (inactive) | > 100 µM (inactive) | 44.4 µM (inactive) | > 100 µM (inactive) |
| CC(=O)O[C@H]1C(=O)[C@@]2(C)[C@H]([C@H](OC(=O)c3ccc(F)cc3)[C@]3(O)C[C@H](OC(=O)[C@H](O)[C@@H](NC(=O)c4ccccc4)c4ccccc4)C(C)=C1C3(C)C)[C@]1(OC(C)=O)CO[C@@H]1C[C@@H]2O | 9.84 µM (inactive) | 0.0127 µM (active) | 0.0813 µM (active) | 9.48 µM (inactive) | 0.0189 µM (active) | 0.0399 µM (active) | 0.168 µM (active) | 0.00819 µM (active) | 0.00857 µM (active) | 0.0233 µM (active) | 0.023 µM (active) | 0.00536 µM (active) | 0.202 µM (active) | 6.58 µM (inactive) | 0.0025 µM (active) | 0.00608 µM (active) | 0.802 µM (active) | 0.0199 µM (active) | 0.00931 µM (active) | 0.108 µM (active) |
| COc1cc(Nc2nc3ccccc3nc2C(C)C)cc(OC)c1OC | 68.4 µM (inactive) | > 100 µM (inactive) | > 100 µM (inactive) | > 100 µM (inactive) | > 100 µM (inactive) | > 100 µM (inactive) | 82.8 µM (inactive) | > 100 µM (inactive) | > 100 µM (inactive) | > 100 µM (inactive) | > 100 µM (inactive) | > 100 µM (inactive) | > 100 µM (inactive) | > 100 µM (inactive) | > 100 µM (inactive) | > 100 µM (inactive) | > 100 µM (inactive) | > 100 µM (inactive) | > 100 µM (inactive) | > 100 µM (inactive) |
